Reference: ChEMBL document CHEMBL1144852, “Optimization of a dihydropyrrolopyrazole series of transforming growth factor-beta type I receptor kinase domain inhibitors: discovery of an orally bioavailable transforming growth factor-beta receptor type I inhibitor as antitumor agent” (J Med Chem, 2008)
The source made the active and inactive calls. No cut-off for these calls is given here.

Tests used:
[1] = target: Ribosomal protein S6 kinase alpha-5 (Homo sapiens) (UniProt O75582); assay: Inhibition of MSK1 at 20 uM
[2] = target: Cyclin-dependent kinase 2 (Homo sapiens) (UniProt P24941); assay: Inhibition of CDK2 at 20 uM
[3] = target: 5'-AMP-activated protein kinase subunit beta-1 (Homo sapiens) (UniProt Q9Y478); assay: Inhibition of AMPK at 20 uM
[4] = target: Tyrosine-protein kinase Blk (Homo sapiens) (UniProt P51451); assay: Inhibition of Blk at 20 uM
[5] = target: Fibroblast growth factor receptor 3 (Homo sapiens) (UniProt P22607); assay: Inhibition of FGFR3 at 20 uM
Liver microsomes = assay: Metabolic stability in human liver microsomes; assay type: ADME, Microsome
[6] = Metabolic stability in rat microsomes; assay type: ADME, Microsome
[7] = AUC in rat at 10 mg/kg, po after 24 hrs; assay type: ADME, organism-based; design: time < 24 hr, dose 10 mg/kg, route oral; settings: plasma
[8] = Oral bioavailability in rat at 10 mg/kg after 24 hrs; assay type: ADME, organism-based; settings: in vivo
Mus musculus [9] = assay: Inhibition of TGFbeta type receptor 1 in human Calu6 cells xenografted mouse at 50 mg/kg, po by single point IVTI assay; assay type: functional, Calu-6; design: scale not given: the % may be the effect or the level left
Mus musculus [10] = assay: Inhibition of TGFbeta type receptor 1 in orally dosed human Calu6 cells xenografted mouse by IVTI […] assay; assay type: functional, organism-based; settings: Calu-6
Mus musculus [11] = assay: Inhibition of TGFbeta type receptor 1 in human Calu6 cells xenografted mouse at 75 mg/kg, po after 4 hrs by IVTI pharmacodynamic assay; assay type: functional; settings: Calu-6, 4 h
MX1 = assay: Effect on tumor growth delay in human MX1 cells xenografted in mouse administered 75 mg/kg, po twice a day after 7 days of inoculation for 20 days; assay type: functional, organism-based; design: dose 75 mg/kg
Caco-2 = assay: Permeability from apical to basolateral side of human Caco-2 cell membrane; assay type: ADME, cell-based
NIH3T3 = assay: Antiproliferative activity against mouse NIH3T3 cells by [3H]thymidine assay; assay type: functional, cell-based
[12] = target: Tyrosine-protein kinase Lck (Homo sapiens) (UniProt P06239); assay: Inhibition of Lck at 20 uM
[13] = target: Mitogen-activated protein kinase 14 (Homo sapiens) (UniProt Q16539); assay: Inhibition of Sapk2-alpha at 20 uM
[14] = target: Dual specificity mitogen-activated protein kinase kinase 6 (Homo sapiens) (UniProt P52564); assay: Inhibition of MKK6 at 20 uM
[15] = target: Tyrosine-protein kinase Fyn (Homo sapiens) (UniProt P06241); assay: Inhibition of Fyn at 20 uM
[16] = target: Mitogen-activated protein kinase 10 (Homo sapiens) (UniProt P53779); assay: Inhibition of JNK3 at 20 uM
[17] = target: Mitogen-activated protein kinase 11 (Homo sapiens) (UniProt Q15759); assay: Inhibition of Sapk2-beta at 20 uM
[18] = target: Mitogen-activated protein kinase 1 (Homo sapiens) (UniProt P28482); assay: Inhibition of MAPK1 at 20 uM
[19] = target: Proto-oncogene tyrosine-protein kinase Src (Homo sapiens) (UniProt P12931); assay: Inhibition of cSRC at 20 uM
[20] = target: Glycogen synthase kinase-3 beta (Homo sapiens) (UniProt P49841); assay: Inhibition of GSK3-beta at 20 uM
[21] = target: Mitogen-activated protein kinase 9 (Homo sapiens) (UniProt P45984); assay: Inhibition of JNK2-alpha-2 at 20 uM
[22] = target: RAF proto-oncogene serine/threonine-protein kinase (Homo sapiens) (UniProt P04049); assay: Inhibition of cRaf at 20 uM
[23] = target: Mitogen-activated protein kinase 12 (Homo sapiens) (UniProt P53778); assay: Inhibition of Sapk3 at 20 uM
[24] = target: MAP kinase-activated protein kinase 5 (Homo sapiens) (UniProt Q8IW41); assay: Inhibition of PRAK at 20 uM
[25] = target: Ribosomal protein S6 kinase beta-1 (Homo sapiens) (UniProt P23443); assay: Inhibition of p70S6K at 20 uM
[26] = target: Cyclin-dependent kinase 1 (Homo sapiens) (UniProt P06493); assay: Inhibition of CDK1 at 20 uM
[27] = target: Serine/threonine-protein kinase N2 (Homo sapiens) (UniProt Q16513); assay: Inhibition of PRK2 at 20 uM
[28] = target: Protein kinase C delta type (Homo sapiens) (UniProt Q05655); assay: Inhibition of PKCdelta at 20 uM
[29] = Inhibition of JNK1-alpha at 20 uM
[30] = target: Serine/threonine-protein kinase Sgk1 (Homo sapiens) (UniProt O00141); assay: Inhibition of SGK at 20 uM
[31] = target: Mitogen-activated protein kinase 13 (Homo sapiens) (UniProt O15264); assay: Inhibition of Sapk4 at 20 uM
[32] = target: Dual specificity mitogen-activated protein kinase kinase 1 (Homo sapiens) (UniProt Q02750); assay: Inhibition of Mek1 at 20 uM
[33] = target: Serine/threonine-protein kinase Chk1 (Homo sapiens) (UniProt O14757); assay: Inhibition of Chk1 at 20 uM
[34] = target: Dual specificity mitogen-activated protein kinase kinase 7 (Homo sapiens) (UniProt O14733); assay: Inhibition of MKK7-beta at 20 uM
[35] = target: Serine/threonine-protein kinase Chk2 (Homo sapiens) (UniProt O96017); assay: Inhibition of Chk2 at 20 uM
[36] = target: Rho-associated protein kinase 2 (Homo sapiens) (UniProt O75116); assay: Inhibition of Rock2 at 20 uM
[37] = target: Protein kinase C beta type (Homo sapiens) (UniProt P05771); assay: Inhibition of PKC-beta-2 at 20 uM
[38] = target: Vascular endothelial growth factor receptor 2 (Homo sapiens) (UniProt P35968); assay: Inhibition of KDR at 20 uM
[39] = target: Tyrosine-protein kinase ZAP-70 (Homo sapiens) (UniProt P43403); assay: Inhibition of ZAP70 at 20 uM
[40] = target: Dual specificity mitogen-activated protein kinase kinase 4 (Homo sapiens) (UniProt P45985); assay: Inhibition of MKK4 at 20 uM
[41] = target: MAP kinase-activated protein kinase 2 (Homo sapiens) (UniProt P49137); assay: Inhibition of MAPKAPK2 at 20 uM
[42] = Inhibition of PKA at 20 uM
[43] = target: RAC-alpha serine/threonine-protein kinase (Homo sapiens) (UniProt P31749); assay: Inhibition of PKBalpha at 20 uM
[44] = Inhibition of CaMK2 at 20 uM
[45] = Inhibition of CK2 at 20 uM
[46] = target: Protein kinase C alpha type (Homo sapiens) (UniProt P17252); assay: Inhibition of PKCalpha at 20 uM

Chain of Protein kinase C beta type (Homo sapiens) (P05771 2-671 limits assumed): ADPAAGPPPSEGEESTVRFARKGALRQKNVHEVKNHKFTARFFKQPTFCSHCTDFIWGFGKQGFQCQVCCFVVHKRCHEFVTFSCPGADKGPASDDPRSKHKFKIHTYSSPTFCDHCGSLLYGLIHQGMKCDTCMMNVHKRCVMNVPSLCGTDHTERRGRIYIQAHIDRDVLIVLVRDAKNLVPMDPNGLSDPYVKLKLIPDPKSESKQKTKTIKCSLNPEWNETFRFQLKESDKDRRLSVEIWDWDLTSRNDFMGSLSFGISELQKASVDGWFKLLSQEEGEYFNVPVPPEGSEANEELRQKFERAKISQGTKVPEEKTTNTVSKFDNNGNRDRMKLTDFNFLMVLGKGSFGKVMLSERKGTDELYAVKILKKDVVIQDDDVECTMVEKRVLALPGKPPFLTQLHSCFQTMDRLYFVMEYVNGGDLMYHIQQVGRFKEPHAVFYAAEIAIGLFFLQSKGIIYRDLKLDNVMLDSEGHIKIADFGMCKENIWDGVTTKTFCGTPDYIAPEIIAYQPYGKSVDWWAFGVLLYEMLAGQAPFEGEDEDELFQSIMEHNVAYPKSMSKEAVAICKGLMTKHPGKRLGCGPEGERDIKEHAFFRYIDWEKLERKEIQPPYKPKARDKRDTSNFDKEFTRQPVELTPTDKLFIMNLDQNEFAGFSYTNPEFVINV
Chain of Mitogen-activated protein kinase 13 (Homo sapiens) (O15264 whole entry): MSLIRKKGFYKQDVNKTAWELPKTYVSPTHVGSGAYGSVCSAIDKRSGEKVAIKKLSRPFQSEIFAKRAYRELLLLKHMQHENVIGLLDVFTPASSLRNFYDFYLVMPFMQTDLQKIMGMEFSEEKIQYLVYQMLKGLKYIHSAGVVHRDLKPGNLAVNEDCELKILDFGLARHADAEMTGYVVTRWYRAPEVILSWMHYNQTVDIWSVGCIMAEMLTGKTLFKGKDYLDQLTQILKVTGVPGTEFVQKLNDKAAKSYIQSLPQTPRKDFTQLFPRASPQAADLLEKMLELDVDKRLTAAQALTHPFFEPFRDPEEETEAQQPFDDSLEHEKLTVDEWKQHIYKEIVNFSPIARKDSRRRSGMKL
Chain of Dual specificity mitogen-activated protein kinase kinase 7 (Homo sapiens) (O14733 whole entry): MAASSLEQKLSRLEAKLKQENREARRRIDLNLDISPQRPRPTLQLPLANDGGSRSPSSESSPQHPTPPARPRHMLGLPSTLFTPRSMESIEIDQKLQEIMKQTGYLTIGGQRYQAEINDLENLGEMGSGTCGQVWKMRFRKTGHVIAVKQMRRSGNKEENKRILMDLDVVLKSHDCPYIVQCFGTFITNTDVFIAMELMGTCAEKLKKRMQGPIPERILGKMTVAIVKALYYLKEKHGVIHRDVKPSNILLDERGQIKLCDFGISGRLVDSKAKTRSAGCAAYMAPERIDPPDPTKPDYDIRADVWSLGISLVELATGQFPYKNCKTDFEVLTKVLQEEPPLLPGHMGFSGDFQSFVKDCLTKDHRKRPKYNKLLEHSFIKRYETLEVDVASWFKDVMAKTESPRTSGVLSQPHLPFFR
Chain of Mitogen-activated protein kinase 11 (Homo sapiens) (Q15759 whole entry): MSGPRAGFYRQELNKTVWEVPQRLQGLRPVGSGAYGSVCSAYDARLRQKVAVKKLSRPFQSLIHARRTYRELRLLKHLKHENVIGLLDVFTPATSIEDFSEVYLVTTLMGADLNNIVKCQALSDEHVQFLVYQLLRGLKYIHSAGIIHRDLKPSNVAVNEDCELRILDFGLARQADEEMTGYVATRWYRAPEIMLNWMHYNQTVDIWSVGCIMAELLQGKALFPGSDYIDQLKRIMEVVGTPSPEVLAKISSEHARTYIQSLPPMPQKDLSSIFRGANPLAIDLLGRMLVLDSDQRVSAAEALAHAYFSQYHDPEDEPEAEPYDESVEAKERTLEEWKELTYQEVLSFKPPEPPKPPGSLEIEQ
Chain of Tyrosine-protein kinase Fyn (Homo sapiens) (P06241 2-537 limits assumed): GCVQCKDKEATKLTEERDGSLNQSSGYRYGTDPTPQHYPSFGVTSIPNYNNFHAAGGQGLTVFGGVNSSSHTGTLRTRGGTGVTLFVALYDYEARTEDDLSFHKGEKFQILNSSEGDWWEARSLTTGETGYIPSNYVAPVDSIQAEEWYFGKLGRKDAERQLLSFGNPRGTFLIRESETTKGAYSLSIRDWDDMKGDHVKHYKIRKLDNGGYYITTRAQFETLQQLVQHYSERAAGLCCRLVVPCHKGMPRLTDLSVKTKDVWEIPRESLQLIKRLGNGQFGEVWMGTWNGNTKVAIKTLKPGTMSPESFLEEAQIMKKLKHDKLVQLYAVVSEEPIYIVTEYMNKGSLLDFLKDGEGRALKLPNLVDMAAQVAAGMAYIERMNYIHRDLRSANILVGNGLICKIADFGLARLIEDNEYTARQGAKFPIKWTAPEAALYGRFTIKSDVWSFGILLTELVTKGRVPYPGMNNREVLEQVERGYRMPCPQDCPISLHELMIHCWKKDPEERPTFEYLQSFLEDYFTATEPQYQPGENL
Chain of Serine/threonine-protein kinase Chk1 (Homo sapiens) (O14757 whole entry): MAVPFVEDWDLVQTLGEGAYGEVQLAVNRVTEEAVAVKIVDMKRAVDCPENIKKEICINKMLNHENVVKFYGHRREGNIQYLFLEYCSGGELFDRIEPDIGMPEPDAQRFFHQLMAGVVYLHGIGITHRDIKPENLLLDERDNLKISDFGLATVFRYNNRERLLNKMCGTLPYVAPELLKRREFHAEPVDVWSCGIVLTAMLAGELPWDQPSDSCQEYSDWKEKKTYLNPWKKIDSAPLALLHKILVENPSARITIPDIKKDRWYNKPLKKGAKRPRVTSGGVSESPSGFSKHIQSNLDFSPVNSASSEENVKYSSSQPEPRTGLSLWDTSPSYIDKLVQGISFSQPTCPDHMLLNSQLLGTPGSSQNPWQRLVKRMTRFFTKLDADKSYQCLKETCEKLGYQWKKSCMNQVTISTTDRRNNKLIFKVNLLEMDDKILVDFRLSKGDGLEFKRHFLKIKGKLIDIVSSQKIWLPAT
Chain of Mitogen-activated protein kinase 1 (Homo sapiens) (P28482 whole entry): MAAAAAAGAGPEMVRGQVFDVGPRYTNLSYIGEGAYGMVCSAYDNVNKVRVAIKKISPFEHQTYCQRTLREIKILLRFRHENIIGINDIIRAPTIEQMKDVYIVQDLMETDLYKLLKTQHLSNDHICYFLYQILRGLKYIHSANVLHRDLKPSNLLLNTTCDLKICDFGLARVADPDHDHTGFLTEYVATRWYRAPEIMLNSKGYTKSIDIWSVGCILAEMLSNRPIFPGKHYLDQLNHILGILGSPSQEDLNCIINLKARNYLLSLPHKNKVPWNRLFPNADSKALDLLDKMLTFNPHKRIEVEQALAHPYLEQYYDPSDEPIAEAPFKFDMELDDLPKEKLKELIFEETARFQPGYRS
Chain of Dual specificity mitogen-activated protein kinase kinase 1 (Homo sapiens) (Q02750 whole entry): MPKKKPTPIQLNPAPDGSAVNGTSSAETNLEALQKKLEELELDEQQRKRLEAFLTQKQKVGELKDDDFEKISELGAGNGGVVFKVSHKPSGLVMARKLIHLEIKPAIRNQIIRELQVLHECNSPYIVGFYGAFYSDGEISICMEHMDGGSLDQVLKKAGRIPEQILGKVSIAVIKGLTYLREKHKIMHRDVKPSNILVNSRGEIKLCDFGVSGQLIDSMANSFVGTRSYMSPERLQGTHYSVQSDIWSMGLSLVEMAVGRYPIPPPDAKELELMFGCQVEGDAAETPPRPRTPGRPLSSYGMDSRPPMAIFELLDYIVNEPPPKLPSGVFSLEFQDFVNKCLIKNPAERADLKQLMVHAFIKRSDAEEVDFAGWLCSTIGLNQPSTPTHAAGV
Chain of Ribosomal protein S6 kinase alpha-5 (Homo sapiens) (O75582 whole entry, looked up): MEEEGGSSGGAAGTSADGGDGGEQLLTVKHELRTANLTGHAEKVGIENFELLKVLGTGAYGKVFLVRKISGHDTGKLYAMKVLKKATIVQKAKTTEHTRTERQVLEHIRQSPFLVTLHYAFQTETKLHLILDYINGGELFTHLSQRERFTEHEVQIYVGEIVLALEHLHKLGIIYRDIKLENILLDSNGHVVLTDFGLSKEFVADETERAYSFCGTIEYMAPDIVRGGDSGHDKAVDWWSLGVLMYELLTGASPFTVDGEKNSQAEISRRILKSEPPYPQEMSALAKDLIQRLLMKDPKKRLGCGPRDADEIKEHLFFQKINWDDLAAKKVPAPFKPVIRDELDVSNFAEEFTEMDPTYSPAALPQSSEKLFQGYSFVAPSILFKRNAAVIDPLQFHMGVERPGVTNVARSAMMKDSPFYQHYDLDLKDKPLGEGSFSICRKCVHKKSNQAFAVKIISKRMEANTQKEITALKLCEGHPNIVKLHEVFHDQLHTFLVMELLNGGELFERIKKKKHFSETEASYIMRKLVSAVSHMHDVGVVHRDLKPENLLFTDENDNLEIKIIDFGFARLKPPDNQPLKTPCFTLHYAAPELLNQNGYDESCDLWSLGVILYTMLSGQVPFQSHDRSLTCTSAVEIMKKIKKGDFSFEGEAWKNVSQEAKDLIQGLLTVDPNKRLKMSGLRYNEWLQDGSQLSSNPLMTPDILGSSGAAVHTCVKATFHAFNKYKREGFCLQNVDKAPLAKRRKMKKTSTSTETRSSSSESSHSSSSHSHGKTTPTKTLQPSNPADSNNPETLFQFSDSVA
Chain of Serine/threonine-protein kinase Sgk1 (Homo sapiens) (O00141 whole entry): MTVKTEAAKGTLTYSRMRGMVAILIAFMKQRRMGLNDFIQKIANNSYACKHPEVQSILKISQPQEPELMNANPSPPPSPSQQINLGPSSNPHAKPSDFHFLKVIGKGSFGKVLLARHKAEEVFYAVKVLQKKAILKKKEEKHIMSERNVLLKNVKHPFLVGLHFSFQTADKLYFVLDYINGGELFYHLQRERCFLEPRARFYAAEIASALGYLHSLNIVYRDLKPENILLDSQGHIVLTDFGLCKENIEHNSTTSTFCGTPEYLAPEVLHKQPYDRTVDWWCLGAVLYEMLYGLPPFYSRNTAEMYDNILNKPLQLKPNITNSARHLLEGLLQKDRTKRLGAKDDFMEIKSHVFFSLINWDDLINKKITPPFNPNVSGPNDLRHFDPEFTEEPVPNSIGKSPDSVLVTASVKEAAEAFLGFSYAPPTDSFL

With `c1ccc(-c2nn3c(c2-c2ccnc4cc(OCCN5CCOCC5)ccc24)CCC3)nc1` the inhibition [1] was less than 50%, the inhibition [2] was less than 50% and the inhibition [3] was less than 50%. The inhibition [4] was less than 50%, the inhibition [5] was less than 50% and the Stability (Liver microsomes) was 27%. The Stability [6] was 58%, the AUC at 24 h [7] was 1000 ng·h/mL and the bioavailability [8] was 21%. The Activity (Mus musculus [9]) was 56%, the EC50 (Mus musculus [10]) was 236 nM and the inhibition in vivo at 75 mg/kg (Mus musculus [11]) was 48%. For the same compound, the Activity (MX1) was “Active”, the permeability (Caco-2) was 28% and the IC50 (NIH3T3) was 210 nM. For the same compound, the inhibition [12] was 69%, the inhibition [13] was 89% and the inhibition [14] was 80%. For the same compound, the inhibition [15] was 58%, the inhibition [16] was 68% and the inhibition [17] was 47%. It also gave an inhibition [18] of 31%, an inhibition [19] of less than 50% and an inhibition [20] of less than 50%. For the same compound, the inhibition [21] was less than 50%, the inhibition [22] was less than 50% and the inhibition [23] was less than 50%. The inhibition [24] was less than 50%, the inhibition [25] was less than 50% and the inhibition [26] was less than 50%. It also gave an inhibition [27] of less than 50%, an inhibition [28] of less than 50% and an inhibition [29] of less than 50%. It also gave an inhibition [30] of less than 50%, an inhibition [31] of less than 50% and an inhibition [32] of less than 50%. For the same compound, the inhibition [33] was less than 50%, the inhibition [34] was less than 50% and the inhibition [35] was less than 50%. For the same compound, the inhibition [36] was less than 50%, the inhibition [37] was less than 50% and the inhibition [38] was less than 50%. The inhibition [39] was less than 50%, the inhibition [40] was less than 50% and the inhibition [41] was less than 50%. For the same compound, the inhibition [42] was less than 50%, the inhibition [43] was less than 50% and the inhibition [44] was less than 50%. The inhibition [45] was less than 50% and the inhibition [46] was less than 50%.
